These are literature values, as cited in patent publication US20110160463A1, “PROCESS FOR MAKING SUBSTITUTED 2-AMINO-THIAZOLONES” (Amgen Inc., priority 2008, published 2011).

Data set [1] deals with T1, 11βHSD1 (Homo sapiens, UniProt P28845).
T1 construct: reduce the intraocular pressure by 20% in normal subjects; host or cells: endogenous enzyme in living subjects (eye)
The settings on record: ingestion, normal subjects.
T1 sequence (P28845 whole entry): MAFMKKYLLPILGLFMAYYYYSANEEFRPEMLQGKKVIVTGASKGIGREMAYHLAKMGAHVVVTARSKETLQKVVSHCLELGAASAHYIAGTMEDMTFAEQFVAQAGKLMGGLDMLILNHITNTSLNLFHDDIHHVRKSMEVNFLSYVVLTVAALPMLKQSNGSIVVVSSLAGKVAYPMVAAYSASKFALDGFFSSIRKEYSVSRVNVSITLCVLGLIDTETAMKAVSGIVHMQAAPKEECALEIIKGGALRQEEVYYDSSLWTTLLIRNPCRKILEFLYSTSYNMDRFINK

Data set [2] has as its target T2, 11βHSD1 (Homo sapiens, UniProt P28845).
T2 construct: Hepatic insulin sensitivity was improved in healthy human volunteers; host or cells: endogenous enzyme in human volunteers (liver)
The settings on record: healthy human volunteers.
T2 sequence (P28845 whole entry): as above

SMILES strings stand for the structures.

`CC1(C)[C@@H](OC(=O)CCC(=O)O)CC[C@]2(C)[C@H]3C(=O)C=C4[C@@H]5C[C@@](C)(C(=O)O)CC[C@]5(C)CC[C@@]4(C)[C@]3(C)CC[C@@H]12` [carbenoxolone]: the “negative effect (of glucocorticoids) on bone nodule formation” value in the data set with bone nodule formation is “blocked”. For the same compound, the “reduction of the intraocular pressure” value at 11βHSD1 [1] is 20%. For the same compound, at 11βHSD1 [2], the hepatic insulin sensitivity entry was “improved”.
